# Test results reported in PubChem BioAssay (NCI).
# Several values for one entry are separate records, joined by “and”; a condition that tells them apart may be missing. Equal entries are not always repeated.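 48-hour exposure; five concentrations; linearly interpolated endpoints. GI50 = concentration required for 50% inhibition of growth. TGI denotes the concentration required for complete inhibition of growth.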
# Columns and labels:
# Test in all cases: NCI anticancer screen, dose series, 48 h
# [1] = tested on: IGROV1 ovarian
# [2] = tested on: OVCAR-8 ovarian
# [3] = tested on: DMS 114 small cell lung
# [4] = tested on: KM20L2 colon
# [5] = tested on: OVCAR-4 ovarian
# [6] = tested on: HOP-18 NSCLC
# [7] = tested on: NCI-H226 lung
# [8] = tested on: A549 NSCLC
# [9] = tested on: MDA-MB-231 breast
# [10] = tested on: UACC-62 melanoma
# [11] = tested on: NCI-H23 lung
# [12] = tested on: SNB-78 CNS
SMILES,TGI [1],TGI [2],TGI [3] [µM],TGI [4] [µM],TGI [5],TGI [6] [µM],TGI [7],TGI [8],TGI [9],TGI [10],TGI [11],TGI [12] [µM],GI50 [2],GI50 [7] [µM],GI50 [8],GI50 [9] [µM],GI50 [10] [µM],GI50 [11] [µM]
COc1ccccc1C(=O)N(Cc1ccccc1)c1ccc(Cl)c(C(=O)OC(C)C)c1,> 100 µM,> 100 µM,56,> 100,> 100 µM,56.3,58 µM,> 100 µM,> 100 µM,> 100 µM,> 82.8 µM,78,–,–,–,–,–,–
NC1=NCN(C2OC(CO)C(O)C2O)C(=O)N1 (configuration not stated),299 µM,1870 µM,437,1530,1510 µM,1060,414 µM,1080 µM,568 µM,241 µM,1500 µM,1780,–,–,–,–,–,–
CN(C)CCN1CCc2c([nH]c3ccccc23)C1c1cccnc1 (configuration not stated),> 100 µM,> 100 µM,> 100,> 100,> 100 µM,> 100,–,> 100 µM,–,> 100 µM,> 100 µM,> 100,–,–,–,–,–,–
O=C1OC(=O)C([Se]c2ccccc2)=C1[Se]c1ccccc1,> 100 µM,> 100 µM,> 100,> 100,> 100 µM,> 100,> 100 µM,> 100 µM,–,> 100 µM,> 100 µM,> 100,–,–,–,–,–,–
OCC(O)C(O)C(O)c1nn(-c2ccc(F)cc2)c2nc3cc(Cl)c(Cl)cc3nc12 (configuration not stated),63.6 µM,23 µM,71.4,> 100,> 100 µM,52.7,49.4 µM,32 µM,–,35.9 µM,48 µM,27.4,–,–,–,–,–,–
CC1(C)OC(=O)C(=C2CCC(C(=O)Nc3cccc(C(F)(F)F)c3)N2)C(=O)O1 (configuration not stated),> 100 µM,> 100 µM,> 100,> 100,> 100 µM,> 100,> 100 µM,> 100 µM,–,> 100 µM,> 100 µM,> 100,–,–,–,–,–,–
COc1ccc(Br)c(C(=O)N2CCc3ccccc32)c1N,> 100 µM,> 100 µM,79.4,> 100,> 100 µM,> 100,> 100 µM,> 100 µM,–,> 100 µM,> 100 µM,> 100,–,–,–,–,–,–
Cc1cc(Cl)ccc1NC(=O)C1C(=O)N(c2ccc(Cl)cc2C)C(=O)/C1=N\NC(N)=S (configuration not stated),–,> 100 µM,98.7,46.8,69.7 µM,60.8,–,> 100 µM,–,86.4 µM,41.6 µM,> 100,–,–,–,–,–,–
COc1ccccc1NC(=O)C1=C(C)NC(C)=C(C(=O)Nc2ccccc2OC)C1c1ccco1,> 100 µM,> 100 µM,7.53,13,88.2 µM,73.9,33.1 µM,> 100 µM,> 100 µM,22.9 µM,32.4 µM,> 100,–,–,–,–,–,–
NCCCN=c1ccc2c3c1c(O)c1c(O)ccc(=O)c1c3[nH]n2CCNCCO,15.4 µM and 129 µM,15.7 µM and 20 µM,> 250,38.4,10.5 µM and 20.1 µM,17.8,7.05 µM and 10.7 µM,12.3 µM and 21.8 µM,12.3 µM and 25 µM,5.66 µM and 6.48 µM,5.66 µM and 8.54 µM,4.15,3.34 µM and 1.15 µM,1.05,0.571 µM and 0.304 µM,2.43,0.792,1.06
O=C1C(=O)C2(CC1S(=O)(=O)c1ccccc1)c1ccccc1-c1ccccc12 (configuration not stated),47.9 µM,34.5 µM,53.3,> 100,> 100 µM,> 10,82.6 µM,63.7 µM,–,31.9 µM,30.2 µM,45.6,–,–,–,–,–,–
COc1cc2c(c(OC)c1OC)C(=O)NCCC2,> 100 µM,> 100 µM,> 100,> 100,> 100 µM,> 100,> 100 µM,> 100 µM,–,> 100 µM,> 100 µM,> 100,–,–,–,–,–,–
Cc1ccc(OC(=O)N2C/C(=C\c3ccccc3)C(=O)/C(=C/c3ccccc3)C2)cc1,> 95.5 µM,54.5 µM,59.4,> 100,32.2 µM,> 91.2,> 100 µM,> 100 µM,70.2 µM,59 µM,87.9 µM,82.3,–,–,–,–,–,–
COc1ccc(/C=N/NS(=O)(=O)c2ccccc2)cc1,> 100 µM,> 100 µM,> 100,> 100,> 100 µM,> 100,> 100 µM,> 100 µM,–,> 100 µM,> 100 µM,> 100,–,–,–,–,–,–
